Patent publication US9340549B2, “Oxazolidinone compounds and derivatives thereof” (priority 2012, dated 2016)
Read-outs that look alike come from different tables or passages of the source.

Columns and labels:
[1] = system: total β-catenin in SW480 colorectal cells; assay: cells; format: cell-based
Description: Total β-Catenin MSD 96-Well Plate Assay for SW480 Cells
SW480 colorectal cells were seeded at a density of 10,000/well in CellBIND 96-well plates (Corning catalog no. 3300) in 60 μL of normal growth medium (MEM alpha supplemented with 10% heat inactivated FBS, GlutaMAX, pyruvate, and 10 mM HEPES).
A 10-point, 3-fold dilution series for each TNKS inhibitor was constructed in a 96-well “stock” plate. […] The plates were incubated at 37° C. for 40 to 48 hours. The media was removed from the CellBIND plate via plate inversion and gentle shaking and the inverted plate was touched to a paper towel and immediately placed on ice. […] Plates containing cell lysates were sealed and shaken for one hour at 4° C. and then quickly frozen in a −80° C. for approximately 15 to 30 minutes followed by gradually thawing at 4° C. Finally, lysate containing plates were centrifuged @1000×g (2073 rpm) for 10 minutes at 4° C.
The sealed MSD plate was incubated overnight in a cold room with gentle shaking. The MSD plate was then blocked with 150 μL of Blocker “A” per well and incubated overnight at 4° C. with vigorous shaking. The blocked MSD plate was washed 4 times with 150 μL/well TBS-T wash buffer (150 mM NaCl, 50 mM Tris, pH 7.5, 0.02% Tween-20). Cell lysates (75 μL) were transferred to prepared MSD plates and incubated at 4° C. ON with gentle shaking. […] The detection antibody was incubated for 1 hour at room temperature with vigorous shaking after which plates were washed 3 times with 150 μL/well TBS-T wash buffer. Plates were processed for analysis by the addition of 150 μL/well MSD Read 4× Buffer T with surfactant (catalog no. R92TC-2; diluted 1:3 in deionized water) and were read on the SECTOR Imager 6000.

[2] = system: Axin2 in SW480 cells; assay: cells; format: cell-based; details: Homo sapiens, SW480, 24 h, read-out: Axin2 384 IF EC50 IP
Description: Using a VPrep, 10 μL of compound/controls was transferred from the compound plate to 60 μL in the cell plate (final 0.5% DMSO, 70 μL). The mixture was incubated for 24 hours at 37° C. at 5% CO2.
The extra media was tapped out. 50 μL of 4% paraformaldehyde (Fisher, AA433689M), 0.1% Triton (Sigma, X100-100 ML) in PBS were added, and the mixture was incubated for 15 minutes at room temperature. […] The extra media was tapped out and to this was added 50 μL of buffer containing Axin2 Antibody (Sigma, SAB1100677-200 µL) at 1:10000 in PBS, 0.1% Tween-20, 1% Normal Goat Serum. The mixture was incubated for 2 hours at room temperature or overnight at 4° C. The cells were then washed twice with PBS, 0.1% Tween-20, and 1% Normal Goat Serum. […] The mixture was then incubated for 30 minutes at room temperature. The cells were then washed twice with PBS, 0.1% Tween-20, and 1% Normal Goat Serum. 50-100 μL PBS was added, and the mixture was covered with a plate seal (Fisher, NC9425162). An ArrayScan (a variation of the compartmental analysis protocol was optimized) was used to scan the plates, and data was analyzed using MEAN_RingSpotAvgIntenCh2). The Axin2 accumulation POC was calculated, and the EC50 was determined using Genedata Screener software to report Axin2 activity.

[3] = biological target: 6×HIS-tankyrase 1 (1091-1325) (Homo sapiens (Human), UniProt O95271); assay: biochemical; format: biochemical; details: 400 nM NAD, 60 minutes at room temperature, read-out: TNKS1 IP IC50
Chain of 6×HIS-tankyrase 1 (1091-1325) (O95271 1091-1325): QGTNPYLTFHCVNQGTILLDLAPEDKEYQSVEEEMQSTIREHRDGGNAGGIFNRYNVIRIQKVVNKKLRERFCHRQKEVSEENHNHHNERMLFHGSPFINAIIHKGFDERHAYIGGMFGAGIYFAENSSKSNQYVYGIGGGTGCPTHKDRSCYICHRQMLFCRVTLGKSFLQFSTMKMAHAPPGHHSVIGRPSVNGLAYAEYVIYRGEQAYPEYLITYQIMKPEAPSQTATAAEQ

[4] = Homo sapiens, SW480, read-out: SW480-Total β-Catenin IC50 IP
[5] = Homo sapiens, SW480 cells, 40 to 48 hours, top concentration 10 μM, read-out: SW480-Total β-Catenin IC50 IP

Row | Compound | EC50 ([2]; SW480 cells, 24 hours) | IC50 ([3]; […] enzyme) | IC50 [1, 5] | other results
1 | CC1(C)OC(=O)N([C@H]2CC[C@@H](c3cnc(N)c(-c4ncccn4)c3)CC2)[C@H]1c1ccccc1 (racemic) [Example 72, 3-((1s,4s)-4-(6-amino-5-(pyrimidin-2-yl)pyridin-3-yl)cyclohexyl)-5,5-dimethyl-4-phenyloxazolidin-2-one] | – | – | – | IC50 [1, 4]: 6550 nM; EC50 [2]: 5810 nM
2 | CC1(C)OC(=O)N([C@H]2CC[C@H](c3cnc(N)c(-c4ncccn4)c3)CC2)[C@H]1c1ccccc1 (racemic) [Example 73, 3-((1r,4r)-4-(6-amino-5-(pyrimidin-2-yl)pyridin-3-yl)cyclohexyl)-5,5-dimethyl-4-phenyloxazolidin-2-one] | – | – | – | IC50 [1, 4]: 95.2 nM; EC50 [2]: 202 nM
3 | CC1(C)OC(=O)N(c2ccc(C(=O)Nc3cccc4cccnc34)cc2)[C@@H]1c1cccnc1 [Example 10, (R)-4-(5,5-dimethyl-2-oxo-4-(pyridin-3-yl)oxazolidin-3-yl)-N-(quinolin-8-yl)benzamide] | > 25000 nM | 4450 nM | – | –
4 | CC1(C)OC(=O)N([C@H]2CC[C@H](n3c(=O)[nH]c4cnccc43)CC2)[C@@H]1c1ccccc1 [Example 24, (R)-5,5-dimethyl-3-((1 r,4R)-4-(2-oxo-2,3-dihydro-1H-imidazo[4,5-c]pyridin-1-yl)cyclohexyl)-4-phenyloxazolidin-2-one] | 4640 nM | – | 1480 nM | –
5 | CC1(C)OC(=O)N([C@H]2CC[C@H](n3c(=O)[nH]c4cc(Cl)ccc43)CC2)[C@H]1c1ccccc1 [Example 29, (S)-3-((1r,4S)-4-(5-chloro-2-oxo-2,3-dihydro-1H-benzo[d]imidazol-1-yl)cyclohexyl)-5,5-dimethyl-4-phenyloxazolidin-2-one] | 2560 nM | – | 536 nM | –
6 | CC1(C)OC(=O)N([C@H]2CC[C@H](n3c(=O)[nH]c4ncccc43)CC2)[C@H]1c1ccccc1 [Example 30, (S)-5,5-dimethyl-3-((1r,4S)-4-(2-oxo-2,3-dihydro-1H-imidazo[4,5-b]pyridin-1-yl)cyclohexyl)-4-phenyloxazolidin-2-one] | 1980 nM | – | 1120 nM | –
7 | CC1(C)OC(=O)N([C@H]2CC[C@H](n3c(=O)[nH]c4ncccc43)CC2)[C@@H]1c1ccccc1 [Example 31, (R)-5,5-dimethyl-3-((1r,4R)-4-(2-oxo-2,3-dihydro-1H-imidazo[4,5-b]pyridin-1-yl)cyclohexyl)-4-phenyloxazolidin-2-one] | 17500 nM | – | 2660 nM | –
8 | CC1(C)OC(=O)N([C@H]2CC[C@H](n3c(=O)[nH]c4cccnc43)CC2)C1c1ccccc1 (stereo partly shown) [Example 36, (R+S) 5,5-dimethyl-3-((1r,4r)-4-(2-oxo-1H-imidazo[4,5-b]pyridin-3(2H)-yl)cyclohexyl)-4-phenyloxazolidin-2-one] | 4400 nM | – | 1240 nM | –
9 | O=C(Nc1cccc2cccnc12)c1ccc(N2C(=O)OC3(CCCCC3)C2c2ccccc2)cc1 (stereo not shown) [Example 46, (R+S) 4-(2-oxo-4-phenyl-1-oxa-3-azaspiro[4.5]decan-3-yl)-N-(quinolin-8-yl)benzamide] | – | 5170 nM | – | EC50 [2]: > 25000 nM
10 | CC1(C)OC(=O)N(c2ccn3c(Nc4ccnc5cccnc45)nnc3c2)[C@H]1c1ccccc1 [Example 71, (S)-3-(3-((1,5-naphthyridin-4-yl)amino)-[1,2,4]triazolo[4,3-a]pyridin-7-yl)-5,5-dimethyl-4-phenyloxazolidin-2-one] | > 25000 nM | 503 nM | – | –
11 | CC1(C)OC(=O)N(c2ccc(-c3cnc(N)c(-c4nccc(C(=N)N)n4)c3)cc2)[C@H]1c1ccccc1 [Example 99, (S)-2-(2-amino-5-(4-(5,5-dimethyl-2-oxo-4-phenyloxazolidin-3-yl)phenyl)pyridin-3-yl)pyrimidine-4-carboximidamide] | – | – | – | IC50 [1, 4]: 620 nM; IC50 ([3]; 0.25 nM enzyme): 14.3 nM
12 | CC1(C)OC(=O)N(c2ccc(-c3cnc(N)c(-c4nccc(C#N)n4)c3)cc2)[C@H]1c1ccccc1 [Example 102, (S)-2-(2-amino-5-(4-(5,5-dimethyl-2-oxo-4-phenyloxazolidin-3-yl)phenyl)pyridin-3-yl)pyrimidine-4-carbonitrile] | – | 920 nM | > 10000 nM | –
13 | CC1(C)OC(=O)N([C@H]2CC[C@H](n3c(=O)[nH]c4c(F)cc(F)cc43)CC2)[C@H]1c1ccccc1 [Example 104, (S)-3-((1r,4S)-4-(4,6-difluoro-2-oxo-2,3-dihydro-1H-benzo[d]imidazol-1-yl)cyclohexyl)-5,5-dimethyl-4-phenyloxazolidin-2-one] | – | 93 nM | > 10000 nM | –
14 | COc1cccc([C@@H]2N(c3ccc(C(=O)Nc4cccc5cccnc45)cc3)C(=O)OC2(C)C)c1 [Example 107, (S)-4-(4-(3-Methoxyphenyl)-5,5-dimethyl-2-oxooxazolidin-3-yl)-N-(quinolin-8-yl)benzamide] | – | 89.9 nM | 2360 nM | –
15 | CC1(C)OC(=O)N(c2ccc(C(=O)Nc3cccc4cccnc34)cc2)[C@@H]1c1cccc(F)c1 [Example 109, (R)-4-(4-(3-fluorophenyl)-5,5-dimethyl-2-oxooxazolidin-3-yl)-N-(quinolin-8-yl)benzamide] | > 25000 nM | 5530 nM | – | –
16 | COc1ccc([C@H]2N(c3ccc(C(=O)Nc4cccc5cccnc45)cc3)C(=O)OC2(C)C)cc1 [Example 112, (R)-4-(4-(4-methoxyphenyl)-5,5-dimethyl-2-oxooxazolidin-3-yl)-N-(quinolin-8-yl)benzamide] | > 25000 nM | 2750 nM | – | –
17 | CC1(C)OC(=O)N(c2ccc(-c3cc(-c4ccccn4)cnc3F)cc2)[C@H]1c1ccccc1 [Example 114, (S)-3-(4-(6′-fluoro-[2,3′-bipyridin]-5′-yl)phenyl)-5,5-dimethyl-4-phenyloxazolidin-2-one] | – | 447 nM | 1780 nM | –
18 | CC1(C)OC(=O)N(c2ccc(C(=O)Nc3cccc4cccnc34)cc2)[C@@H]1c1ccccn1 [Example 122, (R)-4-(5,5-dimethyl-2-oxo-4-(pyridin-2-yl)oxazolidin-3-yl)-N-(quinolin-8-yl)benzamide] | – | 1530 nM | 8560 nM | –
19 | CC1(C)OC(=O)N(c2ccc(C(=O)Nc3cccc4cccnc34)cc2)[C@H]1c1ccccn1 [Example 123, (S)-4-(5,5-dimethyl-2-oxo-4-(pyridin-2-yl)oxazolidin-3-yl)-N-(quinolin-8-yl)benzamide] | – | 228 nM | 3440 nM | –
20 | CC1(C)OC(=O)N(c2ccc(C(=O)Nc3cccc4cccnc34)cc2)[C@@H]1c1ccncc1 [Example 125, (R)-4-(5,5-dimethyl-2-oxo-4-(pyridin-4-yl)oxazolidin-3-yl)-N-(quinolin-8-yl)benzamide] | > 25000 nM | 7910 nM | – | –
21 | Cc1cc(N2C(=O)OC(C)(C)[C@@H]2c2ccccc2)ccc1C(=O)Nc1ccnc2cccnc12 [Example 128, (S)-4-(5,5-dimethyl-2-oxo-4-phenyloxazolidin-3-yl)-2-methyl-N-(1,5-naphthyridin-4-yl)benzamide] | – | 693 nM | 4350 nM | –
22 | CC1(C)OC(=O)N(C2CCN(c3cnc4ccn(-c5ncccn5)c4c3)CC2)[C@H]1c1ccccc1 [Example 140, (S)-5,5-dimethyl-4-phenyl-3-(1-(1-(pyrimidin-2-yl)-1H-pyrrolo[3,2-b]pyridin-6-yl)piperidin-4-yl)oxazolidin-2-one] | – | 24.3 nM | 1830 nM | –
23 | (S)-3-(4-(6-amino-5-(5-chloropyridazin-3-yl)pyridin-3-yl)phenyl)-5,5-dimethyl-4-phenyloxazolidin-2-one [Example 100] | – | 220 nM | – | IC50 ([1]; SW480 cells, 40 to 48 hours, top concentration 10 μM, read-out: SW480-Total β-Catenin IC50 IP): 3380 nM
